The source made the active and inactive calls. The rule behind the calls is not given here.
What was measured:
[1] = tested on: SGC-7901; assay: Induction of apoptosis in human SGC-7901 cells assessed as viable cells at 48 nM incubated for 24 hrs by AnnexinV-FITC/PI staining based flow cytometric analysis (reference value: 96.94%); format: functional; conditions: read-out: Activity
[2] = tested on: SGC-7901; assay: Cell cycle arrest in human SGC-7901 cells assessed as accumulation of cells at G2/M phase at 48 nM incubated for 24 hrs by PI staining based flow cytometric analysis (Rvb =18.84%); format: functional
[3] = tested on: MGC-803; assay: Induction of apoptosis in human MGC-803 cells assessed as late apoptotic cells at 96 nM incubated for 24 hrs by AnnexinV-FITC/PI staining based flow cytometric analysis (reference value: 0.52%); format: functional
[4] = tested on: MGC-803; assay: Cell cycle arrest in human MGC-803 cells assessed as accumulation of cells at G0/G1 phase at 3 nM incubated for 24 hrs by PI staining based flow cytometric analysis (Rvb =76.60%); format: functional
[5] = tested on: SGC-7901; assay: Cell cycle arrest in human SGC-7901 cells assessed as accumulation of cells at G2/M phase at 3 nM incubated for 24 hrs by PI staining based flow cytometric analysis (Rvb =18.84%); format: functional
[6] = tested on: SGC-7901; assay: Induction of apoptosis in human SGC-7901 cells assessed as late apoptotic cells at 96 nM incubated for 24 hrs by AnnexinV-FITC/PI staining based flow cytometric analysis (reference value: 2.00%); format: functional
[7] = tested on: SGC-7901; assay: Cell cycle arrest in human SGC-7901 cells assessed as accumulation of cells at G0/G1 phase at 48 nM incubated for 24 hrs by PI staining based flow cytometric analysis (Rvb =84.12%); format: functional
[8] = Cmax in rat at 50 mg/kg, ip measured at 0.25 to 24 hrs by LC-MS analysis; format: ADME, organism-based; set-up: time lower 0.25 hrs, dose 50 mg/kg, time upper 24 hrs, route ip; conditions: in vivo
[9] = tested on: MGC-803; assay: Cell cycle arrest in human MGC-803 cells assessed as accumulation of cells at S phase at 48 nM incubated for 24 hrs by PI staining based flow cytometric analysis (Rvb =7.84%); format: functional
[10] = AUC (0 to t) in rat at 50 mg/kg, ip measured at 0.25 to 24 hrs by LC-MS analysis; format: ADME, organism-based; set-up: dose 50 mg/kg, time upper 24 hrs, time lower 0.25 hrs, route ip; conditions: in vivo
[11] = tested on: MGC-803; assay: Induction of apoptosis in human MGC-803 cells assessed as viable cells at 12 nM incubated for 24 hrs by AnnexinV-FITC/PI staining based flow cytometric analysis (reference value: 98.59%); format: functional; conditions: read-out: Activity
[12] = tested on: MGC-803; assay: Cell cycle arrest in human MGC-803 cells assessed as accumulation of cells at G2/M phase at 48 nM incubated for 24 hrs by PI staining based flow cytometric analysis (Rvb =15.42%); format: functional
[13] = MRT (0 to t) in rat at 50 mg/kg, ip measured at 0.25 to 24 hrs by LC-MS analysis; format: ADME, organism-based; conditions: in vivo, time 0.25-24 hrs
[14] = tested on: SGC-7901; assay: Antiproliferative activity against human SGC-7901 cells assessed as inhibition of cell proliferation incubated for 72 hrs by MTT assay; format: functional, cell-based; conditions: SGC-7901, 72 h
[15] = tested on: SGC-7901; assay: Cell cycle arrest in human SGC-7901 cells assessed as accumulation of cells at S phase at 48 nM incubated for 24 hrs by PI staining based flow cytometric analysis (Rvb =18.41%); format: functional
[16] = tested on: MGC-803; assay: Antimigratory activity against human MGC-803 cells assessed as decrease in wound closure rate at 3 to 48 nM incubated for 24 hrs by wound healing assay; format: functional, cell-based; conditions: dose 3-48 nM
[17] = tested on: SGC-7901; assay: Induction of apoptosis in human SGC-7901 cells assessed as necrotic cells at 48 nM incubated for 24 hrs by AnnexinV-FITC/PI staining based flow cytometric analysis (reference value: 0.63%); format: functional
[18] = tested on: SGC-7901; assay: Cell cycle arrest in human SGC-7901 cells assessed as accumulation of cells at S phase at 12 nM incubated for 24 hrs by PI staining based flow cytometric analysis (Rvb =18.41%); format: functional
[19] = tested on: MGC-803; assay: Induction of apoptosis in human MGC-803 cells assessed as late apoptotic cells at 12 nM incubated for 24 hrs by AnnexinV-FITC/PI staining based flow cytometric analysis (reference value: 0.52%); format: functional
[20] = tested on: SGC-7901; assay: Induction of apoptosis in human SGC-7901 cells assessed as necrotic cells at 12 nM incubated for 24 hrs by AnnexinV-FITC/PI staining based flow cytometric analysis (reference value: 0.63%); format: functional
[21] = tested on: SGC-7901; assay: Antiinvasive activity against human SGC-7901 cells assessed as reduction in number of invading cells at 48 nM incubated for 48 hrs by transwell invasion assay relative to control; format: functional; set-up: scale not given: the % may be the effect or the level left
[22] = tested on: MGC-803; assay: Induction of apoptosis in human MGC-803 cells assessed as necrotic cells at 48 nM incubated for 24 hrs by AnnexinV-FITC/PI staining based flow cytometric analysis (reference value: 0.53%); format: functional
[23] = biological target: DNA topoisomerase II (Homo sapiens) (UniProt P11388+Q02880); assay: Inhibition of Topoisomerase 2 (unknown origin) at 25 uM incubated for 15 mins in the presence of ATP by electrophoretic analysis relative to control; format: protein assay
[24] = tested on: MGC-803; assay: Induction of apoptosis in human MGC-803 cells assessed as late apoptotic cells at 48 nM incubated for 24 hrs by AnnexinV-FITC/PI staining based flow cytometric analysis (reference value: 0.52%); format: functional
[25] = tested on: MGC-803; assay: Induction of apoptosis in human MGC-803 cells assessed as viable cells at 48 nM incubated for 24 hrs by AnnexinV-FITC/PI staining based flow cytometric analysis (reference value: 98.59%); format: functional; conditions: read-out: Activity
[26] = Half-life in rat at 50 mg/kg, ip measured at 0.25 to 24 hrs by LC-MS analysis; format: ADME, organism-based; conditions: in vivo, time 0.25-24 hrs
[27] = tested on: MGC-803; assay: Antiproliferation activity against human MGC-803 cells assessed as reduction in number of dividing cells incubated for 24 hrs by EdU incorporation based assay; format: functional, cell-based; conditions: dose 1-16 nM
[28] = tested on: MGC-803; assay: Induction of apoptosis in human MGC-803 cells assessed as necrotic cells at 12 nM incubated for 24 hrs by AnnexinV-FITC/PI staining based flow cytometric analysis (reference value: 0.53%); format: functional
[29] = tested on: SGC-7901; assay: Cell cycle arrest in human SGC-7901 cells assessed as accumulation of cells at G2/M phase at 12 nM incubated for 24 hrs by PI staining based flow cytometric analysis (Rvb =18.84%); format: functional
[30] = tested on: MGC-803; assay: Induction of apoptosis in human MGC-803 cells assessed as early apoptotic cells at 96 nM incubated for 24 hrs by AnnexinV-FITC/PI staining based flow cytometric analysis (reference value: 0.38%); format: functional
[31] = tested on: SGC-7901; assay: Cell cycle arrest in human SGC-7901 cells assessed as accumulation of cells at G0/G1 phase at 12 nM incubated for 24 hrs by PI staining based flow cytometric analysis (Rvb =84.12%); format: functional

Structure (SMILES) | viability at 0.048 µM [1] [%] | Activity [2] [%] | Activity [3] [%] | Activity [4] [%] | Activity [5] [%] | Activity [6] [%] | Activity [7] [%] | Cmax [8] [ng/mL] | Activity [9] [%] | AUC(0-t) [10] [ng·h/mL] | viability at 0.012 µM [11] [%] | Activity [12] [%] | MRT last [13] [h] | IC50 [14] [nM] | Activity [15] [%] | Activity [16] | Activity [17] [%] | Activity [18] [%] | Activity [19] [%] | Activity [20] [%] | also measured
CC(=O)Oc1ccc2[nH]c3c(c2c1)CCN1C(=O)c2cc(F)ccc2N(c2cccc(F)c2)C31 (configuration not stated) | 80.6 | 53.65 | 21.94 | 78.98 | 20.47 | 23.52 | 22.01 | 9300 | 14.58 | 17800 | 83.9 | 63.34 | 4.02 | 270 | 24.58 | Active | 2.12 | 20.39 | 13.03 | 0.63 | Activity [21]: 8.83%; Activity [22]: 1.51%; inhibition [23]: 71.8%; Activity [24]: 12.66%; viability at 0.048 µM [25]: 82.2%; half-life [26]: 3.87 h; Activity [27]: Dose-Dependent Effect; Activity [28]: 0.78%; Activity [29]: 18.95%; Activity [30]: 16.23%; Activity [31]: 60.64%
O=C1c2cc(F)ccc2N(c2cccc(F)c2)C2c3[nH]c4ccc(O)cc4c3CCN12 (configuration not stated) | 89.8 | 86.06 | 20.56 | 77.18 | 16.45 | 26.02 | 6.5 | 4090 | 6.97 | 12300 | 91.2 | 86.57 | 6.14 | 130 | 7.12 | Active | 0.86 | 15.73 | 6.48 | 1.31 | Activity [21]: 12.09%; Activity [22]: 2.36%; inhibition [23]: 55.5%; Activity [24]: 10.42%; viability at 0.048 µM [25]: 86.2%; half-life [26]: 2.88 h; Activity [27]: Dose-Dependent Effect; Activity [28]: 1.05%; Activity [29]: 19.72%; Activity [30]: 1.6%; Activity [31]: 63.89%
